From patent publication US9957272B2, “3-hydroxypyrrolidine inhibitors of 5′-methylthioadenosine phosphorylase and nucleosidase” (priority 2009, dated 2018) come the findings set out here.

In one assay the target is T1, human MTAP (Homo sapiens, UniProt Q13126).
T1 construct: made in house
T1 sequence (Q13126 1-283): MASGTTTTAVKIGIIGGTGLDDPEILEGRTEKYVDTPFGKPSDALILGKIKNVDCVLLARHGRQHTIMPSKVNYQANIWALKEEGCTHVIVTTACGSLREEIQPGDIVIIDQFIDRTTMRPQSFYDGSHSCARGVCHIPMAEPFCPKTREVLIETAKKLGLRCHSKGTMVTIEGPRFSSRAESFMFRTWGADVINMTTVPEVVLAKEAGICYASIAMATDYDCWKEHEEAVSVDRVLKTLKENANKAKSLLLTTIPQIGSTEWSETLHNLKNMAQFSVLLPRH
The assay can be described thus: Inhibition of human MTAP, continuous spectrophotometric assay. In kind it is biochemical. The text has this: Continuous spectrophotometric assays are used to characterize the compounds of the invention and […] inhibition of MTAP.

For the next assay, the target named is T2, E. coli MTAN (Escherichia coli, UniProt P0AF12).
T2 construct: made in house
T2 sequence (P0AF12 whole entry): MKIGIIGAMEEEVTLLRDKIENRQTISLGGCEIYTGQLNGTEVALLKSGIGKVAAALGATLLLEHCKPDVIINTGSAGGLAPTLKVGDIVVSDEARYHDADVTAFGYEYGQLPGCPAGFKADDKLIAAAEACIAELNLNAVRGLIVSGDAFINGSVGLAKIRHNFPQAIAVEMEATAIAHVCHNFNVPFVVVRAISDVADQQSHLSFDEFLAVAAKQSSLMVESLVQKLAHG
The assay can be described thus: biochemical. Type of assay: biochemical. The procedure: After removal of cell debris by centrifugation, the soluble cell lysates are loaded onto nickel-charged chelating Sepharose (GE Healthcare) and washed with lysis buffer containing 20-150 mM imidazole. The 6His-MTANs are eluted in 250 mM imidazole, desalted using a Sephadex G-15 (GE Healthcare) gel filtration column, equilibrated with low salt buffer (100 mM HEPES, 30 mM KCL, pH 7.6) and concentrated to 40 mg/mL.
Briefly, all experiments are carried out at 25° C., in 1 mL total reaction volume containing 100 mM HEPES buffer, pH 7.5 and 50 mM KCl with 5′-deoxymethylthioadenosine (MTA) as substrate. […] For measuring dissociation constant (Kd) of inhibitors, a xanthine oxidase-coupled assay is carried out. […] Control experiments are carried out in the absence of either inhibitor or MTAN.
[formula] where vs^t and vs are steady state rates in the presence, and absence of inhibitor, respectively; Km is substrate Michaelis constant which is obtained as described above; [S] and [I] are the concentrations of the substrate MTA and inhibitor, respectively. If the concentration of inhibitor is smaller than 10-fold concentration of enzymes, the following correction is then applied: r=I′−(1−v0′/v0)Et
All data fitting is carried out with KaleidaGraph™ ver. 3.5 (Synergy Software).

The mark [1] stands for this setting: read-out: Inhibition (Ki) Human MTAP.
Setting [2] is: 25° C., pH 7.5, MTA as substrate, read-out: Inhibition (Ki) E. coli MTAN.

Like-named read-outs stand apart in the source and are kept apart here. A value given as a limit tells only on which side of the number the result lay.

In the case of `CC[C@@H]1CN(Cc2c[nH]c3c(N)ncnc23)C[C@H]1O` (racemic) [Example 11, (±)-trans-1-[(9-Deaza-adenin-9-yl)methyl]-4-ethyl-3-hydroxypyrrolidine], the values for the Ki at human MTAP and on E. coli MTAN were 8.6 ± 1 nM and 0.31 ± 0.02 nM, respectively.

Regarding `CCCC[C@H]1CN(Cc2c[nH]c3c(N)ncnc23)C[C@@H]1O` [Example 17, (3R,4S)-4-Butyl-1-[(9-deaza-adenin-9-yl)methyl]-3-hydroxypyrrolidine], the Ki at human MTAP (setting [1]) was 0.55 ± 0.07 nM.

At human MTAP, `CC(C)C[C@@H]1CN(Cc2c[nH]c3c(N)ncnc23)C[C@H]1O` (racemic) [Example 9, (±)-trans-1-[(9-Deaza-adenin-9-yl)methyl]-3-hydroxy-4-isobutylpyrrolidine] registered a Ki of 6 ± 0.4 nM.

For the compound `Nc1ncnc2c(CN3C[C@@H](O)[C@H](c4c[nH]nn4)C3)c[nH]c12` (racemic) [Example 15, (±)-trans-1-[(9-Deaza-adenin-9-yl)methyl]-3-hydroxy-4-(1H-1,2,3-triazol-4-yl)pyrrolidine], the inhibitory constant (Ki) at human MTAP (setting [1]) came out at 59 ± 8 nM; at E. coli MTAN (setting [2]) it was 2 ± 0.2 nM.

At human MTAP, `Nc1ncnc2c(CN3C[C@@H](O)[C@H](c4ccccc4)C3)c[nH]c12` (racemic) [Example 1, (±)-trans-1-[(9-Deaza-adenin-9-yl)methyl]-3-hydroxy-4-phenylpyrrolidine] had a Ki of 4.3 ± 0.6 nM.

Turning to `CC[C@H]1CN(Cc2c[nH]c3c(N)ncnc23)C[C@H]1O` (racemic) [Example 18, (±)-cis-1-[(9-Deaza-adenin-9-yl)methyl]-4-ethyl-3-hydroxypyrrolidine], the Ki at human MTAP turned out to be 34 ± 3 nM; on E. coli MTAN (setting [2]) it was 1.8 ± 0.3 nM.

As to `C#C[C@@H]1CN(Cc2c[nH]c3c(N)ncnc23)C[C@H]1O` (racemic) [Example 7, (±)-3,4-trans-1-[(9-Deaza-adenin-9-yl)methyl]-4-ethynyl-3-hydroxypyrrolidine], the Ki on human MTAP (setting [1]) was 31 ± 3 nM; on E. coli MTAN (setting [2]), 0.39 ± 0.02 nM.

Turning to `CCC(CC)[C@@H]1CN(Cc2c[nH]c3c(N)ncnc23)C[C@H]1O` (racemic) [Example 10, (±)-trans-1-[(9-Deaza-adenin-9-yl)methyl]-3-hydroxy-4-(pent-3-yl)pyrrolidine], the Ki was above 5000 nM on human MTAP and 0.7 ± 0.1 nM at E. coli MTAN.

As to `CCCC[C@@H]1CN(Cc2c[nH]c3c(N)ncnc23)C[C@H]1O` (racemic) [Example 8, (±)-trans-1-[(9-Deaza-adenin-9-yl)methyl]-4-butyl-3-hydroxypyrrolidine], the Ki on human MTAP was above 5000 nM; at E. coli MTAN (setting [2]) it was 0.051 ± 0.003 nM.

`C=CC[C@@H]1CN(Cc2c[nH]c3c(N)ncnc23)C[C@H]1O` (racemic) [Example 6, (±)-trans-4-Allyl-1-[(9-deaza-adenin-9-yl)methyl]-3-hydroxypyrrolidine] came in with a Ki on human MTAP of 14.3 ± 1.7 nM.

On to `Nc1ncnc2c(CN3C[C@@H](O)[C@H](C4CC4)C3)c[nH]c12` (racemic) [Example 4, (±)-trans-4-Cyclopropyl-1-[(9-deaza-adenin-9-yl)methyl]-3-hydroxypyrrolidine], for which the affinity on human MTAP corresponds to a Ki of 5.8 ± 0.7 nM.

As to `Nc1ncnc2c(CN3C[C@@H](O)[C@H](c4cn(Cc5ccccc5)nn4)C3)c[nH]c12` (racemic) [Example 14, (±)-trans-4-(1-Benzyl-1H-1,2,3-triazol-4-yl)-1[(9-deaza-adenin-9-yl)methyl]-3-hydroxypyrrolidine], the “Inhibition of Human MTAP” value at human MTAP (at 2.5 μM) is given as “^a (indicates no inhibition observed at 2.5 μM)”.

In turn, `CC[C@H]1CN(Cc2c[nH]c3c(N)ncnc23)C[C@@H]1O` [Example 12] yielded a Ki at human MTAP above 5000 nM.

`Nc1ncnc2c(CN3C[C@@H](O)[C@H](C4CCCC4)C3)c[nH]c12` (racemic) [Example 13, (±)-trans-4-Cyclopentyl-1-[(9-deaza-adenin-9-yl)methyl]-3-hydroxypyrrolidine] registered a Ki on human MTAP of 2.4 ± 0.4 nM.

`Nc1ncnc2c(CN3C[C@@H](CCCSCc4ccccc4)[C@H](O)C3)c[nH]c12` (racemic) [Example 16, (±)-trans-4-[3-(Benzylthio)propyl]-1-[(9-deaza-adenin-9-yl)methyl]-3-hydroxypyrrolidine] returned a Ki at human MTAP of 71 ± 5 nM. Also, the “Selectivity for bacterial MTAN” value at E. coli MTAN is given as “some selectivity for bacterial MTAN”.

`Nc1ncnc2c(CN3C[C@@H](CC4CCCCC4)[C@H](O)C3)c[nH]c12` (racemic) [Example 2, (±)-trans-4-(Cyclohexylmethyl)-1-[(9-deaza-adenin-9-yl)methyl]-3-hydroxy-pyrrolidine] registered a Ki at human MTAP above 5000 nM.

As to `C=C[C@@H]1CN(Cc2c[nH]c3c(N)ncnc23)C[C@H]1O` (racemic) [Example 5, (±)-trans-1-[(9-Deaza-adenin-9-yl)methyl]-3-hydroxy-4-vinylpyrrolidine], the Ki at human MTAP amounted to 8.7 ± 1 nM.

Broadly, the Ki is the equilibrium dissociation constant of an inhibitor or competing ligand from its target.
